Data from patent publication US20040029841A1, “Purinergic antagonists for treating depression” (priority 2002, published 2004).

Test system: brain bioenergetic status
Assay: In vivo 31P magnetic resonance spectroscopy and T2 relaxation times of the brain (axial slice, bilateral basal ganglia) in healthy individuals taking oral SAMe
Set-up: species or system human
Protocol: This lowering was measured as a decrease in the ratio of beta ATP to total ^31P MRS metabolites and detected using magnetic resonance imaging (see, e.g., U.S. Pat. No. 6,258,794, hereby incorporated by reference).
Five healthy men and seven healthy women self-administered 1600 mg of oral SAMe daily. The effect of SAMe on brain bioenergetic status, membrane integrity, and brain transverse relaxation time (T2) was then examined. In vivo ^31P magnetic resonance spectra and relaxation times were acquired, at baseline and after 14 and 28 days of treatment, from an axial slice (50 mm) encompassing the bilateral basal ganglia using a 1.5-T scanner. […] The changes observed in PCr and β-NTP are consistent with the report that SAMe is involved in the production of creatine, which in turn is phosphorylated to PCr at the expense of β-NTP (Braissant et al., Brain Res. Mol. Brain Res. 2001, 86:193-201).
As changes in T2 relaxation times are inversely related to alterations in steady state blood flow, the decrease in T2 observed in women corresponds to a 3.8% increase in cerebral blood flow.

C[S+](CC[C@H](N)C(=O)O)C[C@H]1O[C@@H](n2cnc3c(N)ncnc32)[C@H](O)[C@@H]1O (some centres unmarked) [SAMe, S-adenosylmethionine]
circulating levels of ATP (ratio of beta ATP to total 31P MRS metabolites) (healthy individuals, on average, magnetic resonance): lowering of circulating levels of ATP
mole percent concentrations of phosphocreatine (PCr) (healthy men and women, 1600 mg oral SAMe daily, 14 and 28 days of treatment vs baseline, 31P MRS, basal ganglia slice): significantly higher than at baseline
mole percent beta nucleoside triphosphate (β-NTP) levels, predominantly adenosine triphosphate in the brain (healthy men and women, 1600 mg oral SAMe daily, after treatment vs baseline, 31P MRS, FIG. 1): decreased significantly
brain transverse relaxation time (T2) (women vs men at the end of the treatment regimen, 1600 mg oral SAMe daily): significantly lower T2 values than men
increase in cerebral blood flow (women, worked out from the decrease in T2 relaxation time): 3.8%
